For data set [1], the system named is A431 cells. Kind of data set: Neutral Red cell viability assay on A431 squamous carcinoma cells. In kind it is cell-based, human. The note with it: for IC50: neutral red, 0.1–100 μM, NR: not reached. On the procedure:
(§1) The immortalized human keratinocyte (HaCaT) cells and human squamous carcinoma (A431) cells (Sigma-Aldrich, Milan, Italy) were cultured in RPMI 1640 (Euroclone, Milan, Italy) supplemented with 10% fetal bovine serum (FBS), 100 U/mL penicillin, and 100 μg/mL streptomycin (Euroclone) at 37 °C in a humidified atmosphere containing 5% CO2.
(§2) Both HaCaT (EGF-stimulated) and A431 cells were incubated for 72 h with the test compounds at concentrations in the range 0.1–100 μM.
(§3) Cell viability was measured using the Neutral Red (NR) Assay (N2889, Sigma-Aldrich, Darmstadt, Germany) as previously reported. HaCaT and A431 cell lines were seeded at a density of 5 × 10^4 cells/well in 10% FBS medium in a 96-well plate. After 24 h, test compounds, dissolved in DMSO, were diluted in sterile culture medium supplemented with EGF (HaCaT cells) or 1% FBS (A431 cells) and added into the well plate. […] Diclofenac, HT, T and hybrids 1–4 were tested. After 72 h from treatment, NR was added and cells incubated for 2 h. At the end of the incubation period, cells were washed with PBS and, then, incubated for 10 min with a NR solubilisation solution (1% acetic acid in 50% ethanol). The absorbance was measured at 540 nm using the Infinite M200 NanoQuant instrument (Tecan, Salzburg, Austria). Optical density values from vehicle-treated cells were considered as 100% cell viability.

Data set [2] concerns EGF-stimulated HaCaT cells. Kind of data set: Neutral Red cell viability assay on EGF-stimulated HaCaT cells (actinic keratosis model). In kind it is cell-based, human. The note with it: for potency relative to diclofenac (native drugs): ratio of IC50 values on EGF-stimulated HaCaT. As for the experimental part:
as §1
HaCaT cells under the proliferative stimulus of EGF were used as model of actinic keratosis (AK), a precancerous disease that can progress in cutaneous squamous cell carcinoma (cSCC), according to the critical role played by the EGFR/Fyn/Src/Erk pathway for promoting cSCC formation. Cells were stimulated with EGF at the concentration 5 ng/mL for whole time of treatment with test compounds (see below).
as §2, §3

A short description of data set [3]: In vitro cutaneous permeation through pig ear skin (Gummer-type diffusion cells). In kind it is in vitro ADME. The note with it: measured as hybrid 1 in receiving phase; 24 h. The source says: Porcine ears skin, obtained from freshly sacrificed animals in a local slaughterhouse, was used as model. After cleaning with depurated water, full-thickness skin was removed with a scalpel from the cartilage of the outer region. The excised pig ear skin was carefully deprived of the adhering fat and subcutaneous tissue. Prior to the experiments, the pig hairs were abscised and the skin was gently washed. The skin with a thickness about 1.46 ± 0.06 mm was placed in the Gummer-type diffusion cells with the stratum corneum facing the donor compartment and an available diffusion area of […]. […]
The concentration of diclofenac and hybrid 1 in receiving fluids and in the skin samples was selectively determined by HPLC. […]
Linear regression analysis of pseudo steady state diffusion plots allowed calculation of the following parameters: steady-state flux (J, nmols/cm^2·h), given by Q/At, where Q is the amount of permeant diffusing across area A in time t; lag time (h), indicating the time taken by the drug to saturate the membrane and reach the receiving phase, calculated from the X-axis intercept values of the regression lines and the amount of drug permeated at the end of the experiment (Q24h, nmols).

For data set [4] the following is noted: no reference given; cited from earlier work.
Where [5] appears, read: EGF-stimulated HaCaT (5 ng/mL EGF), 72 h, neutral red, 0.1–100 μM, NR: not reached.
Setting [6] is: Homo sapiens, A-431, A431, 72 h.
[7] abbreviates: Homo sapiens, EGF-stimulated HaCaT (5 ng/mL EGF), 72 h, neutral red, 0.1–100 μM, NR: not reached.

“Also recorded” adds a separate entry of the source.

The IC50 is the point on the concentration scale where inhibition reaches its midpoint. Consider “3-Hydroxyphenethyl 2-(2-((2,6-dichlorophenyl)amino)phenyl)acetate [hybrid 2]”, for which the 50% inhibitory concentration (IC50) worked out at 27.5 ± 1.24 µM in data set [1] (A431, 72 h) and 16.1 ± 1.15 µM in data set [2] (setting [5]). Moreover, the “potency relative to diclofenac (native drugs)” value in data set [2] stood at 4 fold.

In the case of `O=C(O)Cc1ccccc1Nc1c(Cl)cccc1Cl` [diclofenac], the IC50 in data set [1] (setting [6]) was 32 ± 1.05 µM; in data set [2] (setting [7]) it was 67.1 ± 1.94 µM.

For the compound `O=C(CCCOC(=O)Cc1ccccc1Nc1c(Cl)cccc1Cl)OCCc1ccc(O)c(O)c1` [hybrid 3, 3,4-Dihydroxyphenethyl 4-(2-(2-((2,6-dichlorophenyl)amino)phenyl)acetoxy)butanoate], the IC50 in data set [1] (setting [6]) was determined as 30.7 ± 1.33 µM; in data set [2] (setting [7]) it was 17.8 ± 1.09 µM.

By melting point is commonly meant the temperature, or range, at which the solid turns liquid. For `O=C(Cc1ccccc1Nc1c(Cl)cccc1Cl)OCCc1ccc(O)c(O)c1` [hybrid 1, 3,4-Dihydroxyphenethyl 2-(2-((2,6-dichlorophenyl)amino)phenyl)acetate], the melting point was in the range of 123 to 125 °C. Also, the “IC50 in A431 relative to IC50 in EGF-stimulated HaCaT” value in data set [1] (A431 vs EGF-stimulated HaCaT) was “about 4 fold”. The compound further returned a 50% inhibitory concentration (IC50) in data set [1] (setting [6]) of 13.5 ± 2.49 µM. For the same compound, in data set [3], the Flux result was “did not permeate across the skin”. The compound also registered an IC50 in data set [2] (setting [7]) of 3.71 ± 1.08 µM. Besides, the “potency relative to diclofenac (native drugs)” value in data set [2] is “about 20 fold”.

On to `OCCc1ccc(O)cc1` [T, tyrosol, reference compound], for which the IC50 in data set [1] (setting [6]) and in data set [2] (setting [7]) was above 100 µM throughout. Besides, in data set [2] (setting [5]), the “IC50 ± SEM” value is listed as “not reached”.

For `OCCc1ccc(O)c(O)c1` [HT, hydroxytyrosol, reference compound], the results for the half-maximal inhibitory concentration (IC50) in data set [1] (setting [6]) and in data set [2] (setting [7]) were above 100 µM and 72.3 ± 3.58 µM, respectively.

In the case of `O=C(O)Cc1ccccc1Nc1c(Cl)cccc1Cl` [diclofenac sodium], the “partition coefficient n-octanol/water, log POW” value in data set [4] is on record as 4.98.

For `O=C(CCCOC(=O)Cc1ccccc1Nc1c(Cl)cccc1Cl)OCCc1ccc(O)cc1` [hybrid 4, 4-Hydroxyphenethyl 4-(2-(2-((2,6-dichlorophenyl)amino)phenyl)acetoxy)butanoate], the “effect on cell viability (in words)” value in data set [1] (A431, 72 h) was “not able to induce modification in cell viability”; in data set [2] (EGF-stimulated HaCaT, 72 h) it was “antiproliferative effect lower than that of diclofenac; also recorded: not able to induce modification in cell viability”. Also, the IC50 in data set [1] (setting [6]) and in data set [2] (setting [7]) was above 100 µM each time.

Source of the values: paper PMC6539072, “Diclofenac-Derived Hybrids for Treatment of Actinic Keratosis and Squamous Cell Carcinoma” (Molecules, 2019).
